Results taken from patent US20260083674A1, “OXAZOLIDINONE LIPOSOME COMPOSITIONS” (priority 2021, published 2026).
In brackets after ≈: the same amount, converted by molar mass. Like-named read-outs stand apart in the source and are kept apart here.

Legend:
[1] = system: mitochondrial protein synthesis (COX-1/SDH-A) in H9C2 rat heart myoblast cells; assay: Inhibition of mitochondrial protein synthesis (MitoBiogenesis in-cell ELISA, COX-1/SDH-A); settings: H9c2, 120 h, read-out: MPS IC50
Method: Inhibition of mitochondrial protein synthesis was determined using a colorimetric MitoBiogenesis™ in-cell ELISA kit from AbCam (Catalog #ab11021), as per the manufacturer's instructions. […] The levels of two mitochondrial proteins were measured simultaneously, including the mitochondrial DNA-encoded subunit I of Complex IV (COX-1) and the nuclear DNA-encoded 70 kDa subunit of Complex II (SDH-A). The H9C2 rat BDIX heart myoblast cell line was used in these studies in a 384 well plate assay format. Cells were grown in DMEM media with 10% FBS and 1×Glutamine at 37° C. and 5% CO2. […] Ten concentrations of each compound, starting at a high concentration of 200 μM and including nine 3-fold dilutions and one replicate per condition, were added to the cells in 2.5 μl and incubated with the cells for five days at 37° C. and 5% CO2.
COX-I and SDH-A signals were plotted as a ratio of COX-1/SDH-A against concentration of each compound, and the IC50 were calculated for each of the 9 investigational compounds and two controls.

[2] = system: African green monkey kidney (Vero; ATCC #CCL81) cells; assay: In vitro cytotoxicity (PrestoBlue cell viability), Vero cells; settings: Chlorocebus sabaeus, 72 h, read-out: Cell viability IC50, VERO
Method: (§1) Data is reported out as the full cell viability curve, as well as a calculation of the actual IC50 value for each compound.
(§2) Adherent cells were grown to ˜80% confluency. […] The cell density was determined using a hemocytometer.
(§3) These compounds were provided as sterile aqueous solutions of HCl salts with a concentration of 5 mg/ml. For making dilutions, each drug stock was warmed to room temperature, vortexed and was visually inspected for precipitation. If solid drug was present, the stock was heated on a 60° C. water bath and then allowed to cool to near room temperature. Based on the treatment concentrations, 20× working stocks were made by serial dilution.
(§4) At the end of the compound incubation period, replace the media in each well with 100 μl of 1× PrestoBlue Cell Viability Reagent (ThermoFisher Cat #A13261). Incubate the plate at 37° C. in a humidified incubator with 5% CO2 30 min to 2 h. […] Read fluorescence with 560 nm excitation and 590 nm emission using SpectraMax M5 plate reader (Molecular Devices). Correct background by subtracting the RFU of the control containing only the culture medium (background control well) from all sample readings. Calculate the percentage of cytotoxicity using the formula below:
(§5) The IC50 was determined using GraphPad Prism using the following formula:

[3] = Liposome loading: encapsulated drug-to-lipid ratio and encapsulation efficiency; type: physicochemical
Method: 1. The lipid components (phospholipid (PhL), cholesterol, and optionally—a PEG-lipid derivative and/or a lipid fluorescent label were combined in an amount of 100% ethanol equal to one-tenth of a volume (V) calculated to obtain lipid suspension with about 60 mM phospholipid and stirred at the temperature of 65-68° C. until complete dissolution of the lipids.
2. The ethanolic lipid solution was combined with volume V of the trapping agent solution (0.25-0.5 M ammonium sulfate or 1 N triethylammonium sucrose octasulfate) upon stirring at 65-68° C. until a uniform suspension was obtained.
3. The lipid suspension was extruded at least three times through a stack of track-etched polycarbonate membranes, typically, two or four membranes with the nominal pore size of 100 nm and one with the nominal pore size 200 nm (Whatman Nuclepore, USA), using a thermobarrel extruder (Lipex, Canada) at 65-68° C., at the pressure of 400-450 psi. When two 100-nm membranes were used in a 100-ml Lipex extruder, the extrusion pressure was typically 260-300 psi. The resulting liposomes have Z-average particle size (diameter) Xz between about 80 and about 130 nm, and PDI less than 0.1.
5. An aliquot of the extruded, filtered liposome suspension so made was chromatographed on a gravity-fed Sepharose CL-4B size exclusion column (eluent-Type 1 water), to purify the liposomes from extraliposomal trapping agent. The purified liposomes were collected near the void volume fraction of the column. For a scale-up studies, this step was performed using a tangential flow filtration (TFF) on a hollow fiber cartridge (Repligen Spectrum MicroKros PS or mPES membrane with MWCO of 500 KDa) effecting 8-10 volume exchanges (or until the conductivity of the liposome suspension dropped below 200 μS/cm) with Type 1 or USP “Water for injection” endotoxin-free water.
6. The lipid concentration in a purified extruded liposome preparation was determined using HPLC with UV detection, by measuring the concentration of cholesterol and correcting for the known phospholipid/cholesterol molar ratio. Alternatively, a spectrophotometric blue phosphomolybdate method was used to directly quantify the phospholipid content.
7. The drug was dissolved in Type 1 or endotoxin-free pure water in the form of a hydrochloric acid salt (e.g., AKG-3 and AKG-5 were used as monohydrochloride, AKG-28 and AKG-29 were used as dihydrochloride) at the concentration of 5-20 mg/ml of the drug. To the drug prepared in free base form (e.g., AKG-16, AKG-38), an equivalent amount of HCl was added. If necessary, pH of the solution was brought between pH 2.5-5.5, using 1 N NaOH, HCL, or tris(hydroxymethyl)aminomethane (Tris)-base solution, and the solution was filtered through a 0.2-micron PES filter under positive pressure. When necessary, the drug concentration in the stock solution so made was verified by HPLC with UV detection at 305 nm.
8. Purified liposomes of step 5 and the drug stock solution were combined in the presence of an osmotic agent (typically dextrose) and water in the amounts necessary to provide a desired drug-to-phospholipid (DL) ratio, the drug concentration in the range 1.5-3.3 mg/ml, at the osmolality equal to the measured osmolality of the trapping agent solution of step 2. Optionally, a buffer at a desired pH (typically pH 4 to pH 7) was added. In some instances, the amount of added osmotic agent (e.g., dextrose at about 45 g/L) provided osmolality less that the measured osmolality of the trapping agent solution, and the loading was effected at 6-8 mg/ml of the drug.
9. The drug-liposome mixture was incubated with constant agitation at 65-68° C. for about 15-20 min and quickly chilled on ice. After 5-10 min, the mixture was allowed to reach ambient temperature an adjusted to 0.1M NaCl by adding a calculated amount of 3 M NaCl stock solution.
10. […] The liposome fractions were collected near the column void volume. […]

[4] = system: human hepatocyte/liver (HepG2; ATCC #HB8065) cells; assay: In vitro cytotoxicity (PrestoBlue cell viability), HepG2 cells; settings: HepG2, 72 h, read-out: Cell viability IC50, HepG2
Method: as §1, §2, §3, §4, §5

[5] = type: physicochemical
Method: To the resulting cake or syrup, water was added typically to the final 10 mg/ml, and complete dissolution was observed. […] Aqueous solubility of the compounds of the present disclosure is illustrated by the following observations of obtaining visually clear solutions: […]

M.tb Erdman = assay: Broth microdilution MIC with Alamar blue endpoint (MABA), M.tb Erdman; type: cell-based, Mycobacterium tuberculosis; settings: for MIC: Mycobacterium tuberculosis, ERDMAN, broth microdilution, MABA/OD600
M.tb H37Rv = assay: Broth microdilution MIC with Alamar blue endpoint (MABA), M.tb H37Rv; type: cell-based; settings: Mycobacterium tuberculosis
[6] = system: M. tuberculosis Erdman or H37Rv vs VERO or HepG2 cell lines; assay: Selectivity Index (IC50 mammalian cells / MIC bacteria); parameters: species or system Mycobacterium tuberculosis; settings: for Selectivity Index (SI) Erd/HepG2: IC50 HepG2 / MIC Erdman; for Selectivity Index (SI) H37Rv/HepG2: IC50 HepG2 / MIC H37Rv; for Selectivity Index (SI) Erd/VERO: IC50 VERO / MIC Erdman; for Selectivity Index (SI) H37Rv/VERO: IC50 VERO / MIC H37Rv
[7] = system: mitochondrial protein synthesis vs H37Rv M. tuberculosis; assay: MPS selectivity index (MPS IC50 / MIC H37Rv)
[8] = system: methicillin resistant Staphylococcus aureus (MRSA) ATCC 43300; assay: MIC against MRSA strain ATCC 43300; settings: read-out: MRSA MIC, strain ATCC 43300
[9] = system: methicillin resistant Staphylococcus aureus (MRSA) ATCC BAA-1556; assay: MIC against MRSA strain ATCC BAA-1556; settings: ATCCBAA1556|MRSA
[10] = system: methicillin resistant Staphylococcus aureus (MRSA) 880 NR-49120; assay: MIC against MRSA strain 880 NR-49120; settings: read-out: MRSA MIC, strain 880 NR-49120
[11] = system: methicillin resistant Staphylococcus aureus (MRSA) ATCC BAA-1556; settings: cited from earlier work
[12] = broth microdilution, MABA/OD600, read-out: Mycobacterium tuberculosis MIC, H37Rv
[13] = 1 N TEA-SOS, DL0 750-1500 g/mol PhL
[14] = read-out: MIC against the three MRSA strains
[15] = read-out: MRSA MIC, strain ATCC BAA-1556

SMILES	IC50 [2] [µg/mL]	IC50 [4] [µg/mL]	MIC (M.tb Erdman) [µg/mL]	MIC (M.tb H37Rv; [12]) [µg/mL]	Selectivity Index (SI) H37Rv/HepG2 [6]	Selectivity Index (SI) Erd/VERO [6]	Selectivity Index (SI) H37Rv/VERO [6]	SI-MPS MPS/H37 [7]	also measured
CC(=O)NC[C@H]1CN(c2ccc(-c3ccc(-c4nnn(CCN(C)C)n4)nc3)c(F)c2)C(=O)O1 [AKG-38]	≥ 395	97 (≈ 207 µM)							IC50 [1]: 0.041 µg/mL (≈ 0.0875 µM); maximum drug load ([3]; 0.5 M AS, HSPC/Chol 3:2, 0.5 mol % PEG-DSG (Example 14)): 818-842 g/mol PhL; maximum drug load ([3]; 1 N TEA-SOS, HSPC/Chol 3:2, 0.5 mol % PEG-DSG (Example 14)): 989 g/mol PhL; drug load ([3]; 30 mol % cholesterol, 5 mol % PEG-DSG, 1 N TEA-SOS): 462.4 g/mol PhL; Concentration % (w/w) of free base, visually clear solution [5]: 7.1 % (w/w)
CCN(CC)CCNC[C@H]1CN(c2ccc(-c3ccc(-c4nnn(C)n4)nc3)c(F)c2)C(=O)O1 [AKG-9]	139 (≈ 297 µM)	28.1 (≈ 60 µM)	> 8	> 8	3.5	<17.4	<17.4		Selectivity Index (SI) Erd/HepG2 [6]: <3.5
CN(C)CCn1nnc(-c2ccc(-c3ccc(N4C[C@H](CO)OC4=O)cc3F)cn2)n1 [AKG-16]									Maximum encapsulated drug payload ([3]; 0.5 M AS, 0.5 mol % PEG): 668-675 g/mol PhL; Maximum encapsulated drug payload ([3]; 0.5 M AS, 5 mol % PEG): 614-619 g/mol PhL; maximum drug load [3, 13]: 938-951 g/mol PhL; Concentration % (w/w) of free base, visually clear solution [5]: 30.0 % (w/w)
CN(C)CCCC(=O)OC[C@H]1CN(c2ccc(-c3ccc(-c4nnn(C)n4)nc3)c(F)c2)C(=O)O1 [AKG-5]						32.5			Maximum encapsulated drug payload ([3]; 0.5 M AS, 0.5 mol % PEG): 627 g/mol PhL; Drug loading efficiency ([3]; 0.5 mol % PEG-DSG, 1N TEA-SOS, DL0 500 g/mol PhL (Example 8, no added buffer)): 101.3; Drug loading efficiency ([3]; 0.5 mol % PEG-DSG, […] AS, DL0 250 g/mol PhL): 98.5; Drug loading efficiency ([3]; 0.5 mol % PEG-DSG, […] AS, DL0 500 g/mol PhL): 97.7; loading efficiency at or near the maximum drug load [3, 13]: ≥ 96.0%; maximum drug load [3, 13]: 982-1197 g/mol PhL; Drug loading efficiency ([3]; 5 mol % PEG-DSG, 1N TEA-SOS, DL0 500 g/mol PhL): 99.3
CN(C)CCNc1ccc(-c2ccc(N3C[C@H](CO)OC3=O)cc2F)cn1 [AKG-12]	89.1 (≈ 238 µM)	67.6 (≈ 181 µM)	4 (≈ 10.7 µM)	4 (≈ 10.7 µM)	16.9	22.3	22.3		Selectivity Index (SI) Erd/HepG2 [6]: 16.9
CCN(CC)CCCn1nnc(-c2ccc(-c3ccc(N4C[C@H](CNC(C)=O)OC4=O)cc3F)cn2)n1 [AKG-40]								0.13	
CCN(CC)CCCNC[C@H]1CN(c2ccc(-c3ccc(-c4nnn(C)n4)nc3)c(F)c2)C(=O)O1 [AKG-8]			> 8	> 8					
CN(C)CCCn1nnc(-c2ccc(-c3ccc(N4C[C@H](CN)OC4=O)cc3F)cn2)n1.Cl (stereo in doubt) [AKG-30]	110	18.9						2.02	IC50 [1]: 0.252 µg/mL; MIC [8]: > 50 µg/mL; MIC (M.tb H37Rv; read-out: MIC (H37Rv)): 0.125 µg/mL; MIC [9, 14]: > 50 µg/mL; MIC [9, 15]: > 50 µg/mL; MIC [10]: > 50 µg/mL
CN(C)CCn1nnc(-c2ccc(-c3ccc(N4C[C@H](CN)OC4=O)cc3F)cn2)n1 [AKG-28]									Concentration % (w/w) of free base, visually clear solution [5]: 7.3 % (w/w)
CCN(CC)CCn1nnc(-c2ccc(-c3ccc(N4C[C@H](CNC(C)=O)OC4=O)cc3F)cn2)n1 [AKG-39]								0.12	MIC, M. tuberculosis (Example 2) (M.tb Erdman; strain not given): 0.5 µg/mL (≈ 1.01 µM)
Cl.NCCn1nnnc1-c1ccc(-c2ccc(N3C[C@H](CO)OC3=O)cc2F)cn1 [AKG-22]								2.37	
Cn1nnc(-c2ccc(-c3ccc(N4C[C@H](CO)OC4=O)cc3F)cn2)n1 [Tedizolid, reference compound]								0.57	MIC described in U.S. Pat. No. 7,816,379 [11]: 0.5 µg/mL (≈ 1.35 µM)
Cl.Cn1nnc(-c2ccc(-c3ccc(N4C[C@H](CNCCN)OC4=O)cc3F)cn2)n1 [AKG-19]	> 250	42.2	> 8	> 8	5.3	>31.3	>31.3		Selectivity Index (SI) Erd/HepG2 [6]: 5.3
Cl.Cl.NCCn1nnc(-c2ccc(-c3ccc(N4C[C@H](CN)OC4=O)cc3F)cn2)n1 [AKG-29]	110	74.4	0.25					32.80	MIC [8]: > 50 µg/mL; MIC [9, 14]: > 50 µg/mL; MIC [9, 15]: 50 µg/mL; MIC [10]: 50 µg/mL
Cl.Cn1nnc(-c2ccc(-c3ccc(N4C[C@H](CNC(=O)CCCN)OC4=O)cc3F)cn2)n1 [AKG-18]	> 250	9.5	2	2	4.8	>125	>125		Selectivity Index (SI) Erd/HepG2 [6]: 4.8
CCN(CC)CCCn1nnc(-c2ccc(-c3ccc(N4C[C@H](CN)OC4=O)cc3F)cn2)n1.Cl [AKG-31]	112	13.2	0.5	0.5	26.4		223.0		
Cl.Cn1nnc(-c2ccc(-c3ccc(N4C[C@H](CNC(=O)CCN)OC4=O)cc3F)cn2)n1 [AKG-17]		37.3	2	2	18.7	>125	>125		Selectivity Index (SI) Erd/HepG2 [6]: 18.7
